# Measurements: patent US12528826B2, “[1,4]oxazepino[2,3-c]quinolinone derivatives as BCL6 inhibitors” (Cancer Research Technology Limited, priority 2019, dated 2026)
# Molecular target: T1, Trx-6×His-BCL6 (human BCL6 BTB domain covering amino-acid sequence 5-129) (Homo sapiens, UniProt P41182)
# T1 construct: made in house
# Assay: HTRF assay (BCL6 / BCOR peptide)
# Type: binding
# Details: 1 nM Trx-6×His-BCL6, 300 nM BCOR-AF633 peptide, 2 hours incubation at room temperature; read-out: HTRF avg pIC50 (converted)
# Experimental: After 2 hours incubation at room temperature the plate was read on a Pherastar FSX (BMG Labtech) plate reader equipped with 337 nm laser excitation filter, a first emission filter at 620 nm and a second emission filter at 665 nm. The % inhibition at each concentration was calculated by normalising FRET ratio to the appropriate high (DMSO with all reagents) and low (DMSO without BCL6) controls.
row,Structure (SMILES),IC50 [nM]
1,"Cn1c(=O)c2c(c3cc(Nc4nc(N5CC[C@@H](F)[C@@H](F)C5)ncc4Cl)ccc31)N[C@@H](C1CC1)C(F)(F)CO2 (racemic) [Example 10a, (S)-10-((5-chloro-2-((3S,4R)-3,4-difluoropiperidin-1-yl)pyrimidin-4-yl)amino)-2-cyclopropyl-3,3-difluoro-7-methyl-1,2,3,4-tetrahydro-[1,4]oxazepino[2,3-c]quinolin-6(7H)-one; (S)-10-((5-chloro-2-((3R,4S)-3,4-difluoropiperidin-1-yl)pyrimidin-4-yl)amino)-2-cyclopropyl-3,3-difluoro-7-methyl-1,2,3,4-tetrahydro-[1,4]oxazepino[2,3-c]quinolin-6(7H)-one]",12.3
2,"Cn1c(=O)c2c(c3cc(Nc4nc(N5CC[C@@H](F)[C@H](F)C5)ncc4Cl)ccc31)N[C@@H](C1CC1)C(F)(F)CO2 (racemic) [Example 10b, (S)-10-((5-chloro-2-((3S,4S)-3,4-difluoropiperidin-1-yl)pyrimidin-4-yl)amino)-2-cyclopropyl-3,3-difluoro-7-methyl-1,2,3,4-tetrahydro-[1,4]oxazepino[2,3-c]quinolin-6(7H)-one; (S)-10-((5-chloro-2-((3R,4R)-3,4-difluoropiperidin-1-yl)pyrimidin-4-yl)amino)-2-cyclopropyl-3,3-difluoro-7-methyl-1,2,3,4-tetrahydro-[1,4]oxazepino[2,3-c]quinolin-6(7H)-one]",15.8
3,"COC1CCCN(c2ncc(Cl)c(Nc3ccc4c(c3)c3c(c(=O)n4C)OCC(F)(F)[C@H](C4CC4)N3)n2)C1 (mixture of isomers) [Example 10c, (S)-10-((5-chloro-2-((R)-3-methoxypiperidin-1-yl)pyrimidin-4-yl)amino)-2-cyclopropyl-3,3-difluoro-7-methyl-1,2,3,4-tetrahydro-[1,4]oxazepino[2,3-c]quinolin-6(7H)-one; (S)-10-((5-chloro-2-((S)-3-methoxypiperidin-1-yl)pyrimidin-4-yl)amino)-2-cyclopropyl-3,3-difluoro-7-methyl-1,2,3,4-tetrahydro-[1,4]oxazepino[2,3-c]quinolin-6(7H)-one]",5.01
4,"Cn1c(=O)c2c(c3cc(Nc4nc(N5CC[C@@H](F)[C@@H](F)C5)ncc4F)ccc31)N[C@@H](C1CC1)C(F)(F)CO2 (racemic) [Example 10d, (S)-10-((5-fluoro-2-((3S,4R)-3,4-difluoropiperidin-1-yl)pyrimidin-4-yl)amino)-2-cyclopropyl-3,3-difluoro-7-methyl-1,2,3,4-tetrahydro-[1,4]oxazepino[2,3-c]quinolin-6(7H)-one; (S)-10-((5-fluoro-2-((3R,4S)-3,4-difluoropiperidin-1-yl)pyrimidin-4-yl)amino)-2-cyclopropyl-3,3-difluoro-7-methyl-1,2,3,4-tetrahydro-[1,4]oxazepino[2,3-c]quinolin-6(7H)-one]",20.9
5,"CCC1CCCN(c2ncc(Cl)c(Nc3ccc4c(c3)c3c(c(=O)n4C)OCC(F)(F)[C@H](C4CC4)N3)n2)C1 (mixture of isomers) [Example 11b, (S)-10-((5-chloro-2-((R)-3-ethylpiperidin-1-yl)pyrimidin-4-yl)amino)-2-cyclopropyl-3,3-difluoro-7-methyl-1,2,3,4-tetrahydro-[1,4]oxazepino[2,3-c]quinolin-6(7H)-one:(S)-10-((5-chloro-2-((S)-3-ethylpiperidin-1-yl)pyrimidin-4-yl)amino)-2-cyclopropyl-3,3-difluoro-7-methyl-1,2,3,4-tetrahydro-[1,4]oxazepino[2,3-c]quinolin-6(7H)-one (1:1)]",33.1
6,"CC1CCCCN(c2ncc(Cl)c(Nc3ccc4c(c3)c3c(c(=O)n4C)OCC(F)(F)[C@H](C4CC4)N3)n2)C1 (mixture of isomers) [Example 11c, (S)-10-((5-chloro-2-((R)-3-methylazepan-1-yl)pyrimidin-4-yl)amino)-2-cyclopropyl-3,3-difluoro-7-methyl-1,2,3,4-tetrahydro-[1,4]oxazepino[2,3-c]quinolin-6(7H)-one:(S)-10-((5-chloro-2-((S)-3-methylazepan-1-yl)pyrimidin-4-yl)amino)-2-cyclopropyl-3,3-difluoro-7-methyl-1,2,3,4-tetrahydro-[1,4]oxazepino[2,3-c]quinolin-6(7H)-one (1:1)]",55
7,"CC1CCCN(c2ncc(Cl)c(Nc3ccc4c(c3)c3c(c(=O)n4C)OCC(F)(F)[C@H](C4CC4)N3)n2)CC1 (mixture of isomers) [Example 11d, (S)-10-((5-chloro-2-((R)-4-methylazepan-1-yl)pyrimidin-4-yl)amino)-2-cyclopropyl-3,3-difluoro-7-methyl-1,2,3,4-tetrahydro-[1,4]oxazepino[2,3-c]quinolin-6(7H)-one:(S)-10-((5-chloro-2-((S)-4-methylazepan-1-yl)pyrimidin-4-yl)amino)-2-cyclopropyl-3,3-difluoro-7-methyl-1,2,3,4-tetrahydro-[1,4]oxazepino[2,3-c]quinolin-6(7H)-one (1:1)]",64.6
8,"Cn1c(=O)c2c(c3cc(Nc4nc(N5CC(O)CC6(CC6)C5)ncc4Cl)ccc31)N[C@@H](C1CC1)C(F)(F)CO2 (mixture of isomers) [Example 11h, (S)-10-((5-chloro-2-((R)-7-hydroxy-5-azaspiro[2.5]octan-5-yl)pyrimidin-4-yl)amino)-2-cyclopropyl-3,3-difluoro-7-methyl-1,2,3,4-tetrahydro-[1,4]oxazepino[2,3-c]quinolin-6(7H)-one:(S)-10-((5-chloro-2-((S)-7-hydroxy-5-azaspiro[2.5]octan-5-yl)pyrimidin-4-yl)amino)-2-cyclopropyl-3,3-difluoro-7-methyl-1,2,3,4-tetrahydro-[1,4]oxazepino[2,3-c]quinolin-6(7H)-one (1:1)]",5.62
9,"COCC(C)CNc1ncc(Cl)c(Nc2ccc3c(c2)c2c(c(=O)n3C)OCC(F)(F)[C@H](C3CC3)N2)n1 (mixture of isomers) [Example 11m, (S)-10-((5-chloro-2-(((R)-3-methoxy-2-methylpropyl)amino)pyrimidin-4-yl)amino)-2-cyclopropyl-3,3-difluoro-7-methyl-1,2,3,4-tetrahydro-[1,4]oxazepino[2,3-c]quinolin-6(7H)-one:(S)-10-((5-chloro-2-(((S)-3-methoxy-2-methylpropyl)amino)pyrimidin-4-yl)amino)-2-cyclopropyl-3,3-difluoro-7-methyl-1,2,3,4-tetrahydro-[1,4]oxazepino[2,3-c]quinolin-6(7H)-one (1:1)]",3.89
10,"Cn1c(=O)c2c(c3cc(Nc4nc(N5CCCC(C(F)F)C5)ncc4Cl)ccc31)N[C@@H](C1CC1)C(F)(F)CO2 (mixture of isomers) [Example 11r, (S)-10-((5-chloro-2-((R)-3-(difluoromethyl)piperidin-1-yl)pyrimidin-4-yl)amino)-2-cyclopropyl-3,3-difluoro-7-methyl-1,2,3,4-tetrahydro-[1,4]oxazepino[2,3-c]quinolin-6(7H)-one:(S)-10-((5-chloro-2-((S)-3-(difluoromethyl)piperidin-1-yl)pyrimidin-4-yl)amino)-2-cyclopropyl-3,3-difluoro-7-methyl-1,2,3,4-tetrahydro-[1,4]oxazepino[2,3-c]quinolin-6(7H)-one (1:1)]",10
11,"CCC1CCN(c2ncc(Cl)c(Nc3ccc4c(c3)c3c(c(=O)n4C)OCC(F)(F)[C@H](C4CC4)N3)n2)C1 (mixture of isomers) [Example 11y, (S)-10-((5-chloro-2-((R)-3-ethylpyrrolidin-1-yl)pyrimidin-4-yl)amino)-2-cyclopropyl-3,3-difluoro-7-methyl-1,2,3,4-tetrahydro-[1,4]oxazepino[2,3-c]quinolin-6(7H)-one:(S)-10-((5-chloro-2-((S)-3-ethylpyrrolidin-1-yl)pyrimidin-4-yl)amino)-2-cyclopropyl-3,3-difluoro-7-methyl-1,2,3,4-tetrahydro-[1,4]oxazepino[2,3-c]quinolin-6(7H)-one (1:1)]",46.8
12,"Cn1c(=O)c2c(c3cc(Nc4nc(N5CCCC(C)(F)C5)ncc4Cl)ccc31)N[C@@H](C1CC1)C(F)(F)CO2 (mixture of isomers) [Example 11z, (S)-10-((5-chloro-2-((R)-3-fluoro-3-methylpiperidin-1-yl)pyrimidin-4-yl)amino)-2-cyclopropyl-3,3-difluoro-7-methyl-1,2,3,4-tetrahydro-[1,4]oxazepino[2,3-c]quinolin-6(7H)-one:(S)-10-((5-chloro-2-((S)-3-fluoro-3-methylpiperidin-1-yl)pyrimidin-4-yl)amino)-2-cyclopropyl-3,3-difluoro-7-methyl-1,2,3,4-tetrahydro-[1,4]oxazepino[2,3-c]quinolin-6(7H)-one (1:1)]",13.2
13,"Cn1c(=O)c2c(c3cc(Nc4nc(N5CCC(C)(O)C5)ncc4Cl)ccc31)N[C@@H](C1CC1)C(F)(F)CO2 (mixture of isomers) [Example 12a, (S)-10-((5-chloro-2-((R)-3-hydroxy-3-methylpyrrolidin-1-yl)pyrimidin-4-yl)amino)-2-cyclopropyl-3,3-difluoro-7-methyl-1,2,3,4-tetrahydro-[1,4]oxazepino[2,3-c]quinolin-6(7H)-one:(S)-10-((5-chloro-2-((S)-3-hydroxy-3-methylpyrrolidin-1-yl)pyrimidin-4-yl)amino)-2-cyclopropyl-3,3-difluoro-7-methyl-1,2,3,4-tetrahydro-[1,4]oxazepino[2,3-c]quinolin-6(7H)-one (1:1)]",6.31
14,"CC1CN(c2ncc(Cl)c(Nc3ccc4c(c3)c3c(c(=O)n4C)OCC(F)(F)[C@H](C4CC4)N3)n2)CCS1 (mixture of isomers) [Example 12f, (S)-10-((5-chloro-2-((R)-2-methylthiomorpholino)pyrimidin-4-yl)amino)-2-cyclopropyl-3,3-difluoro-7-methyl-1,2,3,4-tetrahydro-[1,4]oxazepino[2,3-c]quinolin-6(7H)-one:(S)-10-((5-chloro-2-((S)-2-methylthiomorpholino)pyrimidin-4-yl)amino)-2-cyclopropyl-3,3-difluoro-7-methyl-1,2,3,4-tetrahydro-[1,4]oxazepino[2,3-c]quinolin-6(7H)-one (1:1)]",9.55
